From PubChem BioAssay (NCI)
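These data come from cells grown in 96-well plates and exposed to compound for 48 hours at five concentrations. GI50 is the concentration that inhibits growth by half. Definition used: TGI = concentration required for complete inhibition of growth.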

Legend:
Assay in all cases: inhibition of tumour cell growth, NCI panel, 48 h
[1] = system: 786-0 renal
[2] = system: A498 renal
[3] = system: A549 NSCLC
[4] = system: ACHN renal
[5] = system: CCRF-CEM leukemia
[6] = system: EKVX NSCLC
[7] = system: HCC-2998 colon
[8] = system: HCT-116 colon
[9] = system: HL-60(TB) leukemia
[10] = system: HOP-92 NSCLC
[11] = system: HS 578T breast
[12] = system: IGROV1 ovarian
[13] = system: K-562 leukemia
[14] = system: LOX IMVI melanoma
[15] = system: MALME-3M melanoma
[16] = system: MCF7 breast
[17] = system: MDA-MB-231 breast
[18] = system: MOLT-4 leukemia
[19] = system: OVCAR-3 ovarian
[20] = system: OVCAR-8 ovarian
[21] = system: PC-3 prostate
[22] = system: SF-268 CNS
[23] = system: SF-539 CNS
[24] = system: SNB-75 CNS
[25] = system: SR leukemia
[26] = system: T-47D breast
[27] = system: TK-10 renal
[28] = system: UACC-62 melanoma
[29] = system: UO-31 renal

Q: N#C/C(=C\c1ccc(Br)cc1)n1nnc2c(F)cccc21 was tested. Which GI50 [1] did it give?
A: 1290 nM

Q: And the TGI [1]?
A: 2910 nM

Q: What about the GI50 [2] of the same molecule?
A: 1360 nM

Q: What about the TGI [2] of the same molecule?
A: 4650 nM

Q: And the GI50 [3]?
A: 1930 nM

Q: And the TGI [3]?
A: > 100000 nM

Q: And the GI50 [4]?
A: 1040 nM

Q: And the TGI [4]?
A: 2380 nM

Q: And the GI50 [5]?
A: 657 nM

Q: And the TGI [5]?
A: 3130 nM

Q: What about the GI50 [6] of the same molecule?
A: 1750 nM

Q: What about the TGI [6] of the same molecule?
A: > 100000 nM

Q: What about the GI50 [7] of the same molecule?
A: 1710 nM

Q: And the TGI [7]?
A: 3180 nM

Q: And the GI50 [8]?
A: 503 nM

Q: What about the TGI [8] of the same molecule?
A: 1940 nM

Q: What about the GI50 [9] of the same molecule?
A: 2450 nM

Q: And the TGI [9]?
A: > 100000 nM

Q: What about the GI50 [10] of the same molecule?
A: 156 nM

Q: What about the TGI [10] of the same molecule?
A: 4480 nM

Q: And the GI50 [11]?
A: 3390 nM

Q: And the TGI [11]?
A: > 100000 nM

Q: What about the GI50 [12] of the same molecule?
A: 715 nM

Q: What about the TGI [12] of the same molecule?
A: 3020 nM

Q: And the GI50 [13]?
A: 386 nM

Q: And the TGI [13]?
A: > 100000 nM

Q: What about the GI50 [14] of the same molecule?
A: 1410 nM

Q: What about the TGI [14] of the same molecule?
A: 2770 nM

Q: What about the GI50 [15] of the same molecule?
A: 1440 nM

Q: What about the TGI [15] of the same molecule?
A: 3930 nM

Q: And the GI50 [16]?
A: 768 nM

Q: And the TGI [16]?
A: > 100000 nM

Q: What about the GI50 [17] of the same molecule?
A: 1280 nM

Q: What about the TGI [17] of the same molecule?
A: 4170 nM

Q: What about the GI50 [18] of the same molecule?
A: 2480 nM

Q: What about the TGI [18] of the same molecule?
A: > 100000 nM

Q: What about the GI50 [19] of the same molecule?
A: 275 nM

Q: What about the TGI [19] of the same molecule?
A: 845 nM

Q: What about the GI50 [20] of the same molecule?
A: 2870 nM

Q: What about the TGI [20] of the same molecule?
A: > 100000 nM

Q: And the GI50 [21]?
A: 472 nM

Q: And the TGI [21]?
A: 2050 nM

Q: What about the GI50 [22] of the same molecule?
A: 3110 nM

Q: What about the TGI [22] of the same molecule?
A: > 100000 nM

Q: And the GI50 [23]?
A: 2210 nM

Q: And the TGI [23]?
A: 5450 nM

Q: What about the GI50 [24] of the same molecule?
A: 43 nM

Q: What about the TGI [24] of the same molecule?
A: 5040 nM

Q: What about the GI50 [25] of the same molecule?
A: 441 nM

Q: And the TGI [25]?
A: > 100000 nM

Q: And the GI50 [26]?
A: 353 nM

Q: And the TGI [26]?
A: 4780 nM

Q: What about the GI50 [27] of the same molecule?
A: 2360 nM

Q: What about the TGI [27] of the same molecule?
A: 6500 nM

Q: What about the GI50 [28] of the same molecule?
A: 697 nM

Q: What about the TGI [28] of the same molecule?
A: 2170 nM

Q: What about the GI50 [29] of the same molecule?
A: 1040 nM

Q: What about the TGI [29] of the same molecule?
A: 2240 nM
